Results: ChEMBL document CHEMBL5257142, “Targeted Degradation of KRASG12D as Potential Therapy in Cancer” (ACS Med Chem Lett, 2023)

system: GTPase KRas (Homo sapiens), P01116 [G12D]; assay: Protac activity at VHL/KRAS G12D in human ASPC1 cells assessed as induction of KRAS G12D protein degradation at 1 uM incubated for 24 hrs by luminescence based analysis relative to control; assay type: cell-based
Sequence (P01116 whole entry G12D, looked up): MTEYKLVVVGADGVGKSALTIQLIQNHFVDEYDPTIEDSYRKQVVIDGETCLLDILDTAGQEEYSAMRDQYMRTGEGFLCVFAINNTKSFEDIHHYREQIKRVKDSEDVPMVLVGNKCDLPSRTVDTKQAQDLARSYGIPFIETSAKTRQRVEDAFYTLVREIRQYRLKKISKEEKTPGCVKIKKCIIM

**Q.** With `Cc1cc(N)nc(-c2c(Cl)cc3c(N4CC5CCC(C4)N5)nc(OC[C@@H]4CCCN4CCCOCCC(=O)N[C@H](C(=O)N4C[C@H](O)C[C@H]4C(=O)N[C@@H](C)c4ccc(-c5scnc5C)cc4)C(C)(C)C)nc3c2F)c1C(F)(F)F` as the molecule, how does the Activity read?
**A.** 29.3%

**Q.** `Cc1ncsc1-c1ccc([C@H](C)NC(=O)[C@@H]2C[C@@H](O)CN2C(=O)[C@@H](NC(=O)CCOCCCN2CCC[C@H]2COc2nc(N3CC4CCC(C3)N4)c3cc(Cl)c(-c4ccc(F)c5sc(N)nc45)c(F)c3n2)C(C)(C)C)cc1` was tested. Which Activity did it give?
**A.** 51.3%

**Q.** How did the Activity turn out when `Cc1cc(N)nc(-c2c(Cl)cc3c(N4CC5CCC(C4)N5)nc(OC[C@@H]4CCCN4CCCOCCC(=O)N[C@H](C(=O)N4C[C@H](O)C[C@H]4C(=O)NCc4ccc(-c5scnc5C)cc4)C(C)(C)C)nc3c2F)c1C(F)(F)F` was run?
**A.** -0.69%

**Q.** For `Cc1cc(N)nc(-c2c(Cl)cc3c(N4CC5CCC(C4)N5)nc(OC[C@@H]4CCCN4CCCOCCCOc4cc(-c5scnc5C)ccc4CNC(=O)[C@@H]4C[C@@H](O)CN4C(=O)[C@H](NC(=O)C4(F)CC4)C(C)(C)C)nc3c2F)c1C(F)(F)F`, which Activity is on record?
**A.** -5.46%

**Q.** How did the Activity turn out when `Cc1ncsc1-c1ccc([C@H](C)NC(=O)[C@@H]2C[C@@H](O)CN2C(=O)[C@@H](NC(=O)CCCCN2CCC[C@H]2COc2nc(N3CC4CCC(C3)N4)c3cc(Cl)c(-c4ccc(F)c5sc(N)nc45)c(F)c3n2)C(C)(C)C)cc1` was run?
**A.** 38.1%

**Q.** Which Activity does the source give for `Cc1cc(N)nc(-c2c(Cl)cc3c(N4CC5CCC(C4)N5)nc(OC[C@@H]4CCCN4CCCCCCCN4CCC(c5cc(F)cc6c5CN(C5CCC(=O)NC5=O)C6=O)CC4)nc3c2F)c1C(F)(F)F` (stereo partly specified) here?
**A.** -22.9%
